Where no end group is shown, it is not given here.
How the values were obtained:
[1] = tested on: human CD34+ cells; format: cell-based
[2] = tested on: hCD34+ cells; conditions: for Cytotoxic effect of the peptides: hCD34+ cells transduced with RD114TR-LV or GALVTR-MLV, peptide 12 μg/ml
[3] = tested on: lentiviral vectors; conditions: Wurm et al., 2010; cited from earlier work
[4] = tested on: human hematopoietic cells engraftment; conditions: hCD34+ cells transduced in presence of 12 μg/ml LAH4-L1
[5] = tested on: 293T cells; assay: Transfection of 293T cells with pEGFP-C1 in presence of peptides; format: cell-based; conditions: peptide 24 μg/ml; 1 μg pEGFP-C1; 48 h
Protocol: FIG. 11. Transfection of 293T cells with pEGFP in presence of LAH4-A4, LAH4-L1 or K2-L10A12-K2 peptides. pEGFP-C1 (1 μg) was mixed in 50 μl of 150 mM NaCl solution with either 3 μg, 4.5 μg, 6 μg or 9 μg of LAH4-A4 or 6 μg of LAH4-L1 or 6 μg of K2-L10A12-K2. Next, the DNA/peptide mix was diluted in 200 μl of DMEM without FCS and loaded onto cell monolayers. 3 hours post-transfection, the medium was replaced with DMEM containing 10% FCS. 48 h later, transfection efficiencies were estimated by monitoring GFP expression using flow cytometry. Data are the average of two independent experiments performed in duplicate with SD.
293T cells (1.5×10E5/well) were plated in 48-well plates the day before transfection. For transfection, 1 μg of pEGFP-C1 was mixed with the desired amount of peptide in 50 μl of 150 mM NaCl solution, vortexed and incubated 15 min at room temperature. Next, the DNA/peptide mix was diluted in 200 μl of DMEM without FCS and loaded onto cell monolayers. 3 hours post-transfection, the medium was replaced with DMEM containing 10% FCS. 48 h later, transfection efficiency was estimated by monitoring GFP expression using flow cytometry.

KKALLAAALAALLALAHHLLALLKKA (LAH2-A4)
Transduction efficiency compared with LAH4-A4 (in words) [1]: not functional

KKALLAKALKLLALLALKLAKALKKA-NH2 [LAK4-L1]
Cytotoxicity (mortality, 7-AAD) [2]: not the consequence of a strong cytotoxic effect

KKKLLHAALAHLLALAHHLLALLKKA (LAH4-A4-K3N)
Transduction efficiency compared with LAH4-A4 (in words) [1]: as efficient as LAH4-A4

ALLAHALHLLALLALHLAHALA (LAH4-L1-dK) [LAH4-L 1-dK]
Transduction efficiency compared with LAH4-L1 (in words) [1]: not detectable

KALLHAALAHLLALAHHLLALLKKA (LAH4-A4-K1N)
hCD34+ transduction level compared to LAH4-A4 [1]: 60%

GIHKQKEKSRLQGGVLVNEILNHMKRATQIPSYKKLIMY (SEVI) [human Semen Enhancer of Viral Infection, fragment of the human prostatic acid phosphatase; not amidated]
Ability to promote the transduction of lentiviral vectors [3]: able to promote the transduction of lentiviral vectors

KKALLHAALAHLLALAHHLLALLKK (LAH4-A4-d1aa)
Transduction efficiency compared with LAH4-A4 (in words) [1]: slightly decreases the efficiency

KKLLHAALAHLLALAHHLLALLKK (LAH4-A4-d2aa)
hCD34+ transduction level compared to LAH4-A4 [1]: 30%

ALLHAALAHLLALAHHLLALLKKA-NH2 [LAH4-A4-dKN]
Cytotoxicity (mortality, 7-AAD) [2]: not the consequence of a strong cytotoxic effect

ALLAHALHLLALLALHLAHALKKA (LAH4-L1-dKN)
Transduction efficiency compared with LAH4-L1 (in words) [1]: not detectable

KKALLHAALAHLLALAHHLLALLKKA-NH2 [LAH4-A4]
Cytotoxicity (mortality, 7-AAD) [2]: no apparent cytotoxicity | Cytotoxicity (mortality, 7-AAD) in dose-response experiment [2]: no apparent cytotoxicity | Cytotoxic effect of the peptides [2]: did not observe any cytotoxic effect

RRALLAHALHLLALLALHLAHALRRA-NH2 [LAH4-L1-R]
Cytotoxicity (mortality, 7-AAD) [2]: no apparent cytotoxicity

KKALLHAALAHLLPLAHHLLALLKKA (LAH4-A4-P14)
Lentiviral transduction abolished relative to LAH4-A4 [1]: 80%

KKLLLHALLAHLLALLHHLLALLKKL (LAH4-A4-Leu)
Transduction efficiency compared with LAH4-A4 (in words) [1]: two times less potent than LAH4-A4

KKALLHAALAHLLALAAALLALLKKA-NH2 [LAH2-A6]
Cytotoxicity (mortality, 7-AAD) [2]: no apparent cytotoxicity

KKALLHLALLHAALLAHHLALALKKA-NH2 [LAH4-L4ISO]
Cytotoxic effect of the peptides [2]: did not observe any cytotoxic effect

KKALLAHALHLLALLALHLAHALA (LAH4-L1-dKC)
Transduction efficiency compared with LAH4-L1 (in words) [1]: as efficiently as LAH4-L1

LAH4-L4: L series peptide with hydrophilic angle of 140°; b61: LAH4-L4 peptide of SEQ ID NO:36; possibly LAH4-L4iso is meant (KKALLALALHHLALLAHLLALHLKKA; LAH4-L4) [L series peptide with hydrophilic angle of 140°; possibly LAH4-L4iso is meant]
Capacity to promote transduction of hCD34+ cells with GALVTR-LVs, ranking within L and A series of isomers [1]: most efficient

HHALLAHALHLLALLALHLAHALHHA (LAH8-L1)
Transduction efficiency compared with LAH4-L1 (in words) [1]: detrimental

KKALLAHALHLLALLALHLAHALKKA-NH2 [LAH4-L1]
Cytotoxic effect (mortality, 7-AAD) [2]: did not observe any cytotoxic effect | Cytotoxic effect of the peptides [2]: did not observe any cytotoxic effect | Cytotoxic or deleterious effect on human immune system reconstitution [4]: did not observed any cytotoxic or deleterious effect

KKALLAAALAALLALAAALLALLKKA (K2-L10A12-K2)
Transduction efficiency compared with LAH4-A4 (in words) [1]: still able to promote some lentiviral transduction | hCD34+ transduction level compared to LAH4-A4 [1]: 17% | Transfection of 293T cells with GFP plasmid [5]: unable to promote cell transfection

KKALLHALLAHLAALLHALLAHLKKA-NH2 [LAH4-A5]
Cytotoxic effect of the peptides [2]: did not observe any cytotoxic effect

Source: patent publication US10596264B2, “Peptides with viral infection enhancing properties and their use” (Genethon, priority 2011, dated 2020)
